Results from patent publication US20050191294A1, “Compositions and methods of use of targeting peptides for diagnosis and therapy” (Board of Regents, The University of Texas System, priority 2003, published 2005).
Where a SMILES comes first, the peptide text is derived from it. Bridges are numbered along the chain shown (N, C = ends). Primed or numbered codes have the meaning given here. Where no end group is shown, it is not given here. [ ]: non-standard residue; d: D form. FITC′ = not defined here

Key:
[1] = tested on: DU145 cells; assay: Cell apoptosis assay (Annexin-V staining), DU145; format: cell-based, human; settings: DU145, 30 μM, 6 hours
Text: Cell apoptosis assays. Peptides were synthesized to our specifications at greater than 95% purity (Genemed Synthesis Inc., San Francisco, Calif.). Apoptosis was induced with a pro-apoptotic motif D(KLAKLAK)2 that disrupts mitochondrial membranes and is inert to eukaryotic plasma membranes. An equimolar concentration of the targeted [(WIFPWIQL (SEQ ID NO:6)-GG-D(KLAKLAK)2 (SEQ ID NO:11) and WDLAWMFRLPVG (SEQ ID NO:7)-GG-D(KLAKLAK)2) (SEQ ID NO:11)] and untargeted [(WIFPWIQL (SEQ ID NO:6)-+(KLAKLAK)2 (SEQ ID NO:11) and WDLAWMFRLPVG (SEQ ID NO:7)-+(KLAKLAK)2 (SEQ ID NO:11)] peptides was used. Human prostate cancer-derived DU 145 cells were grown in tissue chamber slides (Lab-Tek II Chamber Slide System; Nalge Nunc International Corp., Naperville, Ill.). Cells were washed with PBS and incubated with 30 μM (in 300 μl DMEM supplemented with 10% FBS, penicillin and streptomycin) of the targeted and untargeted peptides for 6 hours. Pure DMEM was used as an internal negative control. Apoptosis was detected with the Annexin-V-FLUOS Staining kit (Roche, Manheim, Germany) according to the manufacturer's instructions.

[2] = tested on: LNCaP cells; assay: Cell apoptosis assay (Annexin-V staining), LnCap; format: cell-based, human; settings: LnCap (data not shown)
[3] = tested on: DU145-derived human prostate carcinoma xenografts; assay: Targeted treatment of nude mice bearing DU145 human prostate carcinoma xenografts; format: in vivo; settings: 300 μg/week per mouse i.v.; controls vehicle and equimolar unconjugated mixtures; P<0.001
Method: Establishment of mice bearing human tumor xenografts. Male athymic nu/nu (nude) mice were obtained commercially from Harlan-Sprague-Dawley (Indianapolis, Ind.). Human prostate cancer xenografts were established by injection of DU 145 cells (10^6 cells in a 200 μl DMEM) in the subcutaneous tissue of 2 months old male nude mice.
Targeted treatment ofnude mice bearing human prostate carcinoma xenografts. DU145-derived tumor xenografts were established in male nude mice as described above. GRP78-targeting peptides used for therapy were coupled to the pro-apoptotic motif D(KLAKLAK)2 ([…]) and controls were treated with an equimolar concentration of the GRP78-targeting peptides and the pro-apoptotic motif. Mice were divided into groups of seven animals and treatment started when mean tumor volume for each group was around 200 mm^3. Two-dimensional measurements of tumors were made by caliper on anesthetized mice, and were used to calculate tumor volume. […]
Statistical analysis. Experiments are expressed as mean±standard errors of the means (SEM) of triplicate plates and analyzed by using the two-tailed Student's t test (t test). Tumor volumes were calculated individually for each mouse throughout the study and results are also expressed as mean±SEM for all the groups.

[4] = tested on: wild-type mice obese due to old age; assay: Treatment of age-related obesity in regular diet-fed wild-type mice; format: in vivo, mouse
Method: Fat resorption and metabolic analysis. […] Tissue lipids were measured as described.

[5] = tested on: diet-induced obese C57BL/6 mice; assay: Fat resorption and metabolic analysis in diet-induced obese mice; settings: 4 weeks of treatment
Text: Apoptosis was detected by using standard TUNEL immunohistochemistry.
Fat resorption and metabolic analysis. High-calorie diet for obesity induction (TD97366: 25.4% fat, 21.79% protein, 38.41% carbohydrate) was purchased from Harlan Teklad. […] Stocks of [sequence] (SEQ ID NO:4)-GG-D(KLAKLAK)2 (SEQ ID NO:11), [sequence] (SEQ ID NO:10)-GG-D(KLAKLAK)2 (SEQ ID NO:11), D(KLAKLAK)2, CARAC (SEQ ID NO:9)-GG-D(KLAKLAK)2 (SEQ ID NO:11), and [sequence] (SEQ ID NO:4) chemically synthesized, cyclized, and HPLC-purified to 99% purity (AnaSpec) were prepared by dissolving lyophilized peptides in DMSO to a concentration of 65 mM. […] Mouse weight, body temperature, and food and water consumption were monitored weekly. Tissue lipids were measured as described. […] Oxygen consumption and heat generation of fasting mice were measured for 24 h by indirect calorimetry with OXYMAX (Columbus Instruments, Columbus, Ohio). To quantify spontaneous activity, 8 mice (2 mice per cage) were placed in automated photocell activity cages (AccuScan Instruments, Columbus, Ohio). […] Horizontal locomotor activity was computer-monitored as the number of infrared beam breaks, which were detected for the period of 1 h and recorded every hour for the duration of the test (14 h) by using a Versamax Analyser. […]

[6] = target: T1, recombinant GRP78 (Mesocricetus auratus, UniProt P07823); assay: In vitro phage binding assay on immobilized GRP78; settings: increasing concentrations of synthetic peptide against the corresponding phage
T1 construct: purchased Stressgen, Victoria, Canada
T1 sequence (P07823 19-654): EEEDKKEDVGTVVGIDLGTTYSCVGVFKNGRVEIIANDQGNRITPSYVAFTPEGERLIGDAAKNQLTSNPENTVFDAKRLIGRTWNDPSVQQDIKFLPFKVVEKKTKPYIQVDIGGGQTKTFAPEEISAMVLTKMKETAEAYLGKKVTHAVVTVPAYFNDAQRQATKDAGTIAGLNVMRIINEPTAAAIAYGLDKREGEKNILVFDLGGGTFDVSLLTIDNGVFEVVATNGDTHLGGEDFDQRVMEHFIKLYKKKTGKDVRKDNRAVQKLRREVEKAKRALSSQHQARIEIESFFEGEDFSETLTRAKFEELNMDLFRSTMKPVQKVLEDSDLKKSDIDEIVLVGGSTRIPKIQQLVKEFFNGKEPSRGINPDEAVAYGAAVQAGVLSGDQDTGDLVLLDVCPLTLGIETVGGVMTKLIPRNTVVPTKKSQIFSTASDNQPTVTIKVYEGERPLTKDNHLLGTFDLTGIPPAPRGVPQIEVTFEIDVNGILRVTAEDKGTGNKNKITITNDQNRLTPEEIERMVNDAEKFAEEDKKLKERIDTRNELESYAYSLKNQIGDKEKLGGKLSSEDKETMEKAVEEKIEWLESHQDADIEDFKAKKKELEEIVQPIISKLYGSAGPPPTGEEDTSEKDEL
Method: In vitro phage binding assays. GRP78, HSP70, HSP90 (all from Stressgen, Victoria, Canada) and bovine serum albumin (BSA) were immobilized on microtiter wells of 96-well plates overnight at 4° C. Wells were washed twice with phosphate-buffered saline (PBS), blocked with PBS containing 3% BSA for 1 hour at room temperature (RT), and incubated with 10^9 transducing units (TU) of WIFPWIQL (SEQ ID NO:6)-phage, WDLAWMFRLPVG (SEQ ID NO:7)-phage, or insertless control phage (Fd-tet) in 50 μl of PBS containing 1.5% BSA. After 2 hours at RT, wells were washed with PBS, and bound phage were recovered by infection with host bacteria (log-phase Escherichia coli K91 kan; OD600≈2). Aliquots of the bacterial culture were plated onto Luria-Bertani broth (LB) agar plates supplemented with 40 μg/ml tetracycline and 100 μg/ml kanamycin. Plates were incubated overnight at 37° C., and phage TU were counted in triplicate plates. Increasing concentrations of synthetic peptides WIFPWIQL (SEQ ID NO:6), WDLAWMFRLPVG (SEQ ID NO:7)-, and an unrelated control peptide CARAC (SEQ ID NO:9) (Genemed Synthesis Inc., San Francisco, Calif.) were used to evaluate competitive inhibition of phage binding. All peptides were solubilized in a standard stock solution of 10% dimethylsulfoxide (DMSO) and diluted to working concentrations for the assays.

[7] = tested on: LNCaP cells; assay: Induction of apoptosis, WST-1 cell viability assay, LNCaP; format: cell-based, human; settings: 10-100 μM, 24-72 hours
Method: (§1) Induction and Quantification of Apoptosis with […] (SEQ ID NO:1)-GG-D(KLAKLAK)2 (SEQ ID NO:11) Synthetic Peptide. Soluble […] (SEQ ID NO:1)-GG-D(KLAKLAK)2 (SEQ ID NO:11), […] […] The unrelated control peptide […] (SEQ ID NO:5)-GG-D(KLAKLAK)2 (SEQ ID NO:11) was synthesized by Genemed Synthesis, Inc. (South San Francisco, Calif.). LNCaP, MDA-PCa-2b cells (each at 3×10^4 per well), and EF43fgf-4 cells (7) at 2×10^4 per well were seeded in triplicates and incubated in 96-well plates (Becton Dickinson, Franklin Lakes, N.J.) for 24-72 hours at 37° C., with serially increasing concentrations (10-100 μM) of […] (SEQ ID NO:1))-GG-D(KLAKLAK)2 (SEQ ID NO:11) peptide, […] (SEQ ID NO:1)-peptide alone, D(KLAKLAK)2 (SEQ ID NO:11) peptide alone, or an equimolar mixture of the unconjugated peptides […] […] LNCaP cells were also exposed in parallel to increasing concentrations (20-100 μM) of […] (SEQ ID NO:1)-GG-D(KLAKLAK)2 (SEQ ID NO:11) and unrelated control peptides […] (SEQ ID NO:4)-GG-D(KLAKLAK)2 (SEQ ID NO:11) or […] (SEQ ID NO:5)-GG-D(KLAKLAK)2 (SEQ ID NO:11), under the same conditions. […] (SEQ ID NO:1)-GG-D(LAKLAK)2 (SEQ ID NO:11) peptide for 3 hours. Response was evaluated by a cell viability assay (WST-1; Roche, Mannheim, Germany).

[8] = tested on: MDA-PCa-2b cells; assay: Induction of apoptosis, WST-1 cell viability assay, MDA-PCa-2b; format: cell-based, human; settings: 10-100 μM, 24-72 hours
Method: as §1

[9] = tested on: white fat vasculature; assay: In vivo homing of fitc-peptides in wild-type mice; set-up: species or system mouse

WIFPWIQL (SEQ ID NO:6)-GG-D(KLAKLAK)2 (SEQ ID NO:11): GRP78-targeted pro-apoptotic peptide (WIFPWIQLGG[dK][dL][dA][dK][dL][dA][dK][dK][dL][dA][dK][dL][dA][dK])
toxicity / apoptosis (Annexin-V staining) [1]: induced apoptosis
toxicity / apoptosis (Annexin-V staining) [2]: induced apoptosis
mean tumor volume relative to the controls [3]: significantly smaller

CC(C)C[C@@H](NC(=O)[C@@H](CCCCN)NC(=O)CNC(=O)CNC(=O)[C@@H]1CSSC[C@H](N)C(=O)N[C@@H](CCCCN)C(=O)NCC(=O)NCC(=O)N[C@@H](CCCNC(=N)N)C(=O)N[C@@H](C)C(=O)N[C@@H](CCCCN)C(=O)N[C@@H](CC(=O)O)C(=O)N1)C(=O)N[C@H](C)C(=O)N[C@H](CCCCN)C(=O)N[C@H](CC(C)C)C(=O)N[C@H](C)C(=O)N[C@H](CCCCN)C(=O)N[C@H](CCCCN)C(=O)N[C@H](CC(C)C)C(=O)N[C@H](C)C(=O)N[C@H](CCCCN)C(=O)N[C@H](CC(C)C)C(=O)N[C@H](C)C(=O)N[C@H](CCCCN)C(=O)O (H-CKGGRAKDCGG[dK][dL][dA][dK][dL][dA][dK][dK][dL][dA][dK][dL][dA][dK]-OH; disulfide 1-9)
toxicity [4]: without detectable toxicity
apoptosis and appearance of control organs such as liver [5]: apoptosis was not detected in the control tissues

WIFPWIQL (SEQ ID NO:6): synthetic GRP78-binding peptide
inhibition of phage binding to GRP78 by synthetic peptide [6]: inhibit binding of the corresponding phage in a dose-dependent manner

WDLAWMFRLPVG (SEQ ID NO:7): synthetic GRP78-binding peptide
inhibition of phage binding to GRP78 by synthetic peptide [6]: inhibit binding of the corresponding phage in a dose-dependent manner

D(KLAKLAK)2 (SEQ ID NO:11): amphipathic, α-helix-forming anti-microbial pro-apoptotic peptide KLAKLAKKLAKLAK (D-amino acids) [reference compound]
programmed cell death / toxic effect (WST-1 cell viability) [7]: no measurable toxic effects
programmed cell death / toxic effect (WST-1 cell viability) [8]: no measurable toxic effects

CGRRAGGSC (SEQ ID NO:1): soluble IL-11-mimic peptide alone, used as control
programmed cell death / toxic effect (WST-1 cell viability) [7]: no measurable toxic effects
programmed cell death / toxic effect (WST-1 cell viability) [8]: no measurable toxic effects

WDLAWMFRLPVG (SEQ ID NO:7)-GG-D(KLAKLAK)2 (SEQ ID NO:11): GRP78-targeted pro-apoptotic peptide (WDLAWMFRLPVGGG[dK][dL][dA][dK][dL][dA][dK][dK][dL][dA][dK][dL][dA][dK])
toxicity / apoptosis (Annexin-V staining) [1]: induced apoptosis
toxicity / apoptosis (Annexin-V staining) [2]: induced apoptosis
mean tumor volume relative to the controls [3]: significantly smaller

CKGGRAKDC (SEQ ID NO:4)-fitc: soluble CKGGRAKDC peptide linked to fluorescein (fitc) at its C-terminus (CKGGRAKDC-{FITC′}; also: cyclized, bridge type not given here)
presence in isolated ex-vivo blood vessels from white fat tissue ([9]; mouse, in vivo): presence
detection in white fat vasculature ([9]; wild-type C57BL/6 mice, i.v., 5 min prior to tissue collection): specifically localized to and was internalized by blood vessels of subcutaneous and peritoneal white fat
homing to blood vessels of brown fat, liver and other control organs ([9]; wild-type mice, i.v.): no CKGGRAKDC (SEQ ID NO:4)-fitc homing was observed
